Results on 100 molecules are retold here after ChEMBL document CHEMBL3507680, “University of Dundee, Gates Library screen for HepG2 cell viability”.

This series can be described thus: Human HepG2 cell viability assay in 384 well format. The series is classed as toxicity, cell-based. The arrangement: dose 125 nL, time 70.5 hour; concentration not given beside the values. To be noted: HepG2 cells, read-out: Inhibition.
Take `Cc1ccc(S(=O)(=O)N2CCOCC2C#N)c(F)c1` (stereo not given): the cytotoxicity at 70.5 h worked out at 2.28%.
As to `Cc1nn(-c2ccccc2)c(C)c1CNC(=O)NC1CC1`, the cytotoxicity at 70.5 h was -3.17%.
As to `CC(=O)N1CCN([C@@H]2CC[C@@H](N(C)C(=O)C3CCCCC3)[C@H]2O)CC1`, the cytotoxicity at 70.5 h is -5.4%.
As for `O=C(CNc1nc(C2CC2)ns1)N1CCc2sccc2C1`, the cytotoxicity at 70.5 h is -10.8%.
In the case of `CN(Cc1ccc2c(c1)OCO2)C(=O)c1ccc(=O)n(C)c1` it was -1.05%.
The figure for `CC(C)N(Cc1ccc(Cl)c(Cl)c1)C(=O)CCn1cncn1` is -2.22%; for `O=C(CCCSc1ccc(NC(=O)C2CC2)nn1)NCC1CCCO1` (stereo not given) it is -14.1%.
Take `Cc1csc(CNc2ccc(-c3nc(C4CC4)no3)cn2)n1`: the cytotoxicity at 70.5 h was -5.44%.
As for `Cc1ccc(C(=O)N(Cc2cccc(F)c2)C2CC2)c(=O)[nH]1`, the cytotoxicity at 70.5 h was -2.11%.
For `Cc1cccc(N(CCC(N)=O)CC(=O)NC2CCCC2)c1`, the cytotoxicity at 70.5 h came to 18%.
The figure for `O=C(CCc1ccccc1)N1CCn2cc(CN3CCCC3)nc2C1` is -11.7%; for `CCc1[nH]c2c(CNc3cncc(C(=O)N(C)C)n3)cc(C)cc2c1C` it is 27.8%.
`c1ccc(COc2ccccc2CNC2CCc3ncnn3C2)cc1` (stereo not given): the cytotoxicity at 70.5 h was -6.49%.
The figure for `CC(O)CN1CCN(C(=O)c2ccn(-c3ccccc3Cl)n2)CC1` (stereo not given) is -2.57%; for `COc1ccc(C(=O)NS(=O)(=O)c2cc(Cl)sc2Cl)cc1OC(F)F` it is -3.93%; for `Cc1cc(N(C)C)nc(C2(C)CCCN2C(=O)c2cncnc2C)n1` (stereo not given) it is -10.8%.
Take `COc1ccc(OCc2nc(C(=O)N3CCC(NC(C)=O)C3)co2)cc1` (stereo not given): the cytotoxicity at 70.5 h is -1.19%.
With `O=C(NCC1CCS(=O)(=O)C1)N(Cc1ccco1)C1CC1` (stereo not given), the cytotoxicity at 70.5 h is -10.7%.
With `CS(=O)(=O)NC[C@H]1Cn2c(-c3ccccc3)cnc2CO1`, the cytotoxicity at 70.5 h is -7.36%.
Turning to `CC(=O)N1CCCC(C(=O)c2cnn(-c3ccc(F)cc3)c2N)C1` (stereo not given), the cytotoxicity at 70.5 h was -2.75%.
The figure for `Cc1ncnc(NCC(C)N(C)c2ccccc2)c1C` (stereo not given) is 29.1%.
In the case of `CC(C)CCn1cc(C(C(=O)O)N2CCSCC2)cn1` (stereo not given) it was -12.4%.
For the molecule `c1c[nH]c(CN2CCCC(Cc3ccc(NC4CCCC4)nn3)C2)n1` (stereo not given), the cytotoxicity at 70.5 h was found to be 7.73%.
`CN1C(=O)C(C)(C)COc2cc(NS(=O)(=O)c3ccccc3)ccc21`: the cytotoxicity at 70.5 h stood at 8.64%.
As for `Cc1ccc(OCC(O)COC2CCOCC2)c(Cl)c1` (stereo not given), the cytotoxicity at 70.5 h was -0.327%.
As for `CCn1c(SCC(N)=O)nnc1-c1csc2c1CCCC2`, the cytotoxicity at 70.5 h is 2.39%.
Consider `CC(C)(C)c1ccc(OCc2nc3c(c(=O)[nH]2)CCNC3)cc1`, for which the cytotoxicity at 70.5 h was -7.79%.
As for `NC1(c2nc(C(F)(F)F)cc(=O)[nH]2)CCCC1`, the cytotoxicity at 70.5 h worked out at 21.9%.
The figure for `O=C(CNC(=O)c1cnc2ccccc2c1O)NCCn1ccnc1` is -6.04%; for `Cc1nnc(SCCC(=O)N(C)Cc2ccc(Cl)s2)[nH]1` it is -14.2%; for `CN(Cc1ccccc1OC(F)(F)F)C(=O)C1CC1` it is -7.05%.
On to `c1cnc(NCc2nnn3c2CN(Cc2ccsc2)CCC3)nc1`, for which the cytotoxicity at 70.5 h is -118%.
In the case of `CN1CCC(c2[nH]ncc2S(C)(=O)=O)CC1`, the cytotoxicity at 70.5 h was -7.29%.
`Cc1nc2c(c(Nc3ccccn3)n1)CN(S(C)(=O)=O)CC2`: the cytotoxicity at 70.5 h was found to be 23.4%.
Take `Cc1ccccc1CC(=O)N1CCc2c(ncnc2N2CCOCC2)C1`: the cytotoxicity at 70.5 h was 13.5%.
As to `CCCN1CCC(NN2CCN(C)CC2)CC1`, the cytotoxicity at 70.5 h is -6.76%.
In the case of `NC(=O)CS(=O)(=O)Cc1ccc(F)cc1` it was -1.66%; in that of `O=C(c1ccnnc1)N1CC[C@]2(C[C@H](Oc3ncccc3F)CO2)C1`, -5.53%.
In the case of `CCS(=O)(=O)N1CCC2(CC(=O)N(c3ccccc3C)C2)C1` (stereo not given), the cytotoxicity at 70.5 h is 21.9%.
In the case of `CCN1CCC(NC(=O)CN2CC(n3nc(C)cc3C)C2)CC1` it was -6.85%.
On to `CN(C)[C@@H]1CN(Cc2cccnc2)C[C@H]1c1cn(C)c2ccccc12`, for which the cytotoxicity at 70.5 h is -2.36%.
For the molecule `O=S(=O)(Nc1ccc(Oc2ccc3c(c2)OCO3)cc1)N1CCCCC1`, the cytotoxicity at 70.5 h was 23%.
For the molecule `CC(NCc1ccc(OCC(N)=O)cc1)c1ccc2c(c1)CCCC2` (stereo not given), the cytotoxicity at 70.5 h is -4.04%.
In the case of `CCN1C[C@@H]2CN(c3cc(OC)ncn3)CCC[C@]2(C(=O)O)C1` it was -10.9%.
In the case of `Cc1cc(C(=O)NCC(F)(F)F)c2c(C3CCNCC3)noc2n1`, the cytotoxicity at 70.5 h came to 25.3%.
With `COc1cc(C)c(CNC(C)c2nc(C)cs2)cc1OC` (stereo not given), the cytotoxicity at 70.5 h is -2.23%.
The figure for `CCN(C(=O)NCCc1cccc(F)c1F)C(C)CS(C)(=O)=O` (stereo not given) is -5.85%; for `O=C(c1ccncc1)N1CCc2onc(CN3CCCC3)c2C1` it is 18.4%; for `CCCN1CCN(Cc2nccn2CC)C(C)C1` (stereo not given) it is 19.6%.
For the molecule `COc1ccc(NC(=O)c2nc3ccccc3n(C)c2=O)cc1OC`, the cytotoxicity at 70.5 h was found to be 29.1%.
For `O=S1(=O)CCN2C(=N1)Oc1ccc(Cl)cc12`, the cytotoxicity at 70.5 h was found to be 23.7%.
Consider `O=C(NC1CC1)N1CCc2ccc(=O)n(Cc3cccnc3)c2CC1`, for which the cytotoxicity at 70.5 h turned out to be 6.33%.
Take `Cn1nc2c(cc1=O)CN(Cc1nc(C3CC3)no1)CC2`: the cytotoxicity at 70.5 h was -8.63%.
In the case of `COCC1CN(CC2CC2)Cc2nccn2C1` (stereo not given), the cytotoxicity at 70.5 h is -6.11%.
Consider `Cc1ncccc1CNCC1COC2(CCCCC2)O1` (stereo not given), for which the cytotoxicity at 70.5 h amounted to 27.5%.
Regarding `O=C1CC(c2ccccc2F)c2c(n(C3CCCC3)[nH]c2=O)N1` (stereo not given), the cytotoxicity at 70.5 h was -7.2%.
With `Cc1cc(-c2cnn(C)c2)ccc1OCC(N)=O`, the cytotoxicity at 70.5 h was -2.62%.
For `COCC(=O)N1CCC(c2c(C(=O)N(C)C)sc3ncccc23)C1` (stereo not given), the cytotoxicity at 70.5 h is 27.1%.
In the case of `CC1(C)CNC(=O)c2nc(C3CCCN(C(=O)C4CC4)C3)[nH]c2C1` (stereo not given) it was -7.49%.
With `COc1cc(C(=O)N(Cc2ccco2)C2CC2)cc2c1OCCO2`, the cytotoxicity at 70.5 h is -0.578%.
The figure for `O=C(O)c1ccc(C2CCCN(C(=O)c3ccc[nH]3)C2)cc1` (stereo not given) is -6.26%.
Turning to `CCN1CCC2(COCc3cnc(NCC4CC4)nc32)C1` (stereo not given), the cytotoxicity at 70.5 h was -4.64%.
Consider `COc1ccc(CN2C[C@@H](OCc3csc(C)n3)[C@H]3COC[C@H]32)cc1`, for which the cytotoxicity at 70.5 h was -3.55%.
Take `CN(C)CCSc1ccc(NC(=O)c2nccn3ccnc23)cc1`: the cytotoxicity at 70.5 h is -2.14%.
In the case of `CC/C=C(/C)C(=O)NCc1ccnc(OC2CCOCC2)c1` it was -9.32%; in that of `Cn1c2ncccc2c(=O)n1CC(=O)NCCC1=CCCCC1`, -2.08%; in that of `Cc1ncsc1CCN(C)Cc1cc2n(n1)CCN(Cc1ccco1)C2`, -16.9%.
`Cn1nc(C2CCNC2)c2c(C(=O)NC3CC3)cc(C3CC3)nc21` (stereo not given): the cytotoxicity at 70.5 h is 17.5%.
Take `Cc1noc(-c2ccnc(Oc3ccc(CN4CCCC4)cc3F)c2)n1`: the cytotoxicity at 70.5 h stood at 13.3%.
In the case of `CN1CCN(C(=O)c2cccn2C)c2ccccc2C1` it was -6.26%; in that of `OCC1CCCN1c1cc(NCc2cccs2)ncn1` (stereo not given), 17.3%; in that of `CC(c1nc(-c2cccnc2)no1)N(C)CCCOc1ccccc1` (stereo not given), -3.8%.
In the case of `c1ccc(-c2nc(CCNc3nnc(C4CCC4)o3)no2)cc1` it was 15.9%.
For the molecule `O=C(CCn1ccnc1)N1CC[C@H](Oc2ccc(F)cc2)[C@@H](O)CC1`, the cytotoxicity at 70.5 h is 0.282%.
With `COc1ncccc1C(=O)N1CCC(c2nc3c(C)cccc3[nH]2)CC1`, the cytotoxicity at 70.5 h is -6.55%.
`CC(C)N1CCc2nnc(COc3cncnc3)n2CC1`: the cytotoxicity at 70.5 h was -9.44%.
Take `COc1ccc(Cl)cc1CN(C)C(=O)CN1C(=O)CCC1C` (stereo not given): the cytotoxicity at 70.5 h is -9.27%.
Regarding `CCc1nnc2n1CC(CNCc1nc(C)c(C)o1)CC2` (stereo not given), the cytotoxicity at 70.5 h is -2.88%.
The figure for `O=C1CC(c2ccc(O)cc2)c2c(n3ccsc3nc2=O)N1` (stereo not given) is -29.2%; for `CCC1c2cccn2CCN1S(=O)(=O)N1CCOCC1` (stereo not given) it is 11.2%.
Turning to `O=C(c1ncccn1)N1C[C@@H]2CN(Cc3cccnc3)CCO[C@@H]2C1`, the cytotoxicity at 70.5 h is -5.35%.
For the molecule `CC(C)c1cc(C(=O)N2CCOC3(CCNCC3)C2)no1`, the cytotoxicity at 70.5 h is -5.65%.
The figure for `COCCc1noc(-c2cc(Cl)c3c(c2)OCCCO3)n1` is -19.1%.
As to `CN(CCCc1cnn(C)c1)C(=O)Nc1cccc(C#N)c1`, the cytotoxicity at 70.5 h was -6.3%.
For the molecule `NC(=O)CC1CCN(C(=O)NCc2ccc(-c3ccn[nH]3)cc2)CC1`, the cytotoxicity at 70.5 h is -11.3%.
Turning to `O=C(NS(=O)(=O)c1ccc2c(c1)CCC2)C1COCCO1` (stereo not given), the cytotoxicity at 70.5 h came to 26.8%.
Take `CC(C)Oc1ccc(CNC(=O)C2CCC(=O)N2)cn1` (stereo not given): the cytotoxicity at 70.5 h was 23%.
In the case of `CCN1CCC(=O)N(C)Cc2cc(F)ccc21`, the cytotoxicity at 70.5 h was -8.5%.
Regarding `CCCn1cnnc1CNC(=O)C1COc2cc(OC)ccc2C1` (stereo not given), the cytotoxicity at 70.5 h turned out to be 18.3%.
For `CC(=O)c1c(F)cccc1NC1CCN(C(=O)C2CCCCC2)CC1`, the cytotoxicity at 70.5 h is -2.39%.
Take `COc1ccc(-n2c(CO)nc3ccccc32)cc1CO`: the cytotoxicity at 70.5 h is -6.11%.
Consider `COc1ccccc1CN1CCC(O)(Cn2ccc3ncccc32)CC1`, for which the cytotoxicity at 70.5 h is -2.09%.
`CC(=O)N1CCCC(C(=O)N2CCN(Cc3cc(C)on3)CC2)C1` (stereo not given): the cytotoxicity at 70.5 h was found to be 2.35%.
Take `COC1CCN(c2ccc(NC(=O)Cn3cccn3)cc2)CC1`: the cytotoxicity at 70.5 h was -8%.
The figure for `Cn1c(CN2CCOCC2)cc(=O)c(O)c1CN1CCCC1` is -6.51%.
Consider `O=S(=O)(c1ccc2c(c1)OCCO2)N1CCC(OCc2ccccn2)C1` (stereo not given), for which the cytotoxicity at 70.5 h was -8.08%.
As to `COc1ccc(C2SCC(=O)Nc3n[nH]cc32)c(OC)c1OC` (stereo not given), the cytotoxicity at 70.5 h was found to be 5.69%.
On to `CN1CCOC(CNC(=O)CCCc2ccccc2)C1` (stereo not given), for which the cytotoxicity at 70.5 h was -4.54%.
In the case of `Cn1c(Cn2cccn2)nnc1C1CCN(Cc2ccccc2Cl)CC1` it was -4.12%; in that of `COCCN1C(=O)CO[C@H]2CN(Cc3c[nH]nc3-c3ccccc3)C[C@@H]21`, -9.3%.
